Tests used:
Assay in all cases: relative viability (nuclei count vs DMSO), 5 days (fraction); higher = more cells survive
[1] = compound: C1/C(=C\C2=CC=CS2)/C(=O)/C(=C/C3=CC=CS3)/C1 + N=C(N)NC(=N)NCCc1ccccc1 [Phenformin] (partner 250 µM)
Summary of the method: (§1)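 Lung cancer cell lines were seeded in 1536-well plates and dosed by pin tool the next day, with either a single drug or a fixed anchor-drug dose combined with five library-drug doses (not always all listed) spaced in √10 steps. Five days later, one step fixed the cells and stained their nuclei (final 0.05% Triton X-100, 1% formaldehyde, 1 ug/ml Hoechst), and nuclei were counted on 4× images. Relative viability is the nuclei count in treated wells divided by the count in vehicle wells, and each value is the median of duplicate plates.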

TPCA-1 + Luminespib = compound: C1=CC(=CC=C1C2=CC(=C(S2)NC(=O)N)C(=O)N)F [TPCA-1] + CCNC(=O)c1noc(-c2cc(C(C)C)c(O)cc2O)c1-c1ccc(CN2CCOCC2)cc1 [Luminespib] (partner 0.01 µM)
Summary of the method: as §1

TPCA-1 + Crizotinib = compound: C1=CC(=CC=C1C2=CC(=C(S2)NC(=O)N)C(=O)N)F [TPCA-1] + C[C@@H](Oc1cc(-c2cnn(C3CCNCC3)c2)cnc1N)c1c(Cl)ccc(F)c1Cl [Crizotinib] (partner 1 µM)
Summary of the method: as §1

Lestaurtinib + Lapatinib = compound: C[C@]12O[C@H](C[C@]1(O)CO)n1c3ccccc3c3c4c(c5c6ccccc6n2c5c31)CNC4=O [Lestaurtinib] + CS(=O)(=O)CCNCc1ccc(-c2ccc3ncnc(Nc4ccc(OCc5cccc(F)c5)c(Cl)c4)c3c2)o1 [Lapatinib] (partner 2 µM)
Summary of the method: as §1

Cell Line	relative viability ([1]; first compound 0.2 µM)	relative viability ([1]; first compound 0.6325 µM)	relative viability ([1]; first compound 2 µM)	relative viability ([1]; first compound 6.325 µM)	relative viability ([1]; first compound 20 µM)	relative viability (TPCA-1 + Luminespib; first compound 0.04 µM)	relative viability (TPCA-1 + Luminespib; first compound 0.1265 µM)	relative viability (TPCA-1 + Luminespib; first compound 0.4 µM)	relative viability (TPCA-1 + Luminespib; first compound 1.265 µM)	relative viability (TPCA-1 + Luminespib; first compound 4 µM)	relative viability (TPCA-1 + Crizotinib; first compound 0.04 µM)	relative viability (TPCA-1 + Crizotinib; first compound 0.1265 µM)	relative viability (TPCA-1 + Crizotinib; first compound 0.4 µM)	relative viability (TPCA-1 + Crizotinib; first compound 1.265 µM)	relative viability (TPCA-1 + Crizotinib; first compound 4 µM)	relative viability (Lestaurtinib + Lapatinib; first compound 0.005 µM)	relative viability (Lestaurtinib + Lapatinib; first compound 0.01581 µM)	relative viability (Lestaurtinib + Lapatinib; first compound 0.05 µM)	relative viability (Lestaurtinib + Lapatinib; first compound 0.1581 µM)	relative viability (Lestaurtinib + Lapatinib; first compound 0.5 µM)
LK-2	0.576	0.505	0.622	0.379	0.483	0.216	0.188	0.216	0.175	0.167	0.22	0.229	0.289	0.206	0.313	0.89	1.07	0.64	0.496	0.283
LOU-NH91	0.696	0.757	0.843	0.67	0.736	0.346	0.254	0.397	0.255	0.318	0.724	0.736	0.726	0.731	0.656	0.768	0.721	0.638	0.562	0.404
LU99A	0.771	0.819	0.857	0.819	0.801	0.34	0.302	0.241	0.349	0.231	0.613	0.534	0.47	0.506	0.249	0.839	0.627	0.446	0.38	0.213
NCI-H441	0.826	1.01	0.955	0.77	0.772	0.448	0.414	0.386	0.297	0.19	0.894	0.646	0.618	0.452	0.379	–	–	–	–	–
NCI-H522	0.677	0.649	0.662	0.644	0.651	1.13	0.946	1.22	1.15	0.84	–	–	–	–	–	–	–	–	–	–
NCI-H1299	–	–	–	–	–	–	–	–	–	–	0.95	0.943	0.907	0.972	0.948	0.972	1.01	0.893	0.862	0.479
NCI-H1395	0.448	0.484	0.505	0.483	0.465	0.762	0.695	0.647	0.709	0.644	–	–	–	–	–	1.15	1.26	0.848	0.853	0.416
NCI-H1623	0.644	0.577	0.502	0.599	0.59	0.601	0.555	0.54	0.433	0.426	–	–	–	–	–	–	–	–	–	–
NCI-H1703	–	–	–	–	–	–	–	–	–	–	0.585	0.57	0.594	0.396	0.459	1.07	1.09	0.597	0.278	0.123
NCI-H1793	0.375	0.351	0.515	0.337	0.355	0.173	–	0.142	0.142	0.134	–	–	–	–	–	0.927	0.907	0.467	0.441	0.235
NCI-H2342	0.535	0.63	0.689	0.524	0.519	0.921	0.66	0.819	0.754	0.694	–	–	–	–	–	–	–	–	–	–
SW 900	0.613	0.551	0.875	0.69	0.541	0.179	0.176	0.212	0.201	0.176	–	–	–	–	–	–	–	–	–	–
